Reference: patent US20110130370A1, “Pharmaceutical composition comprising a strontium salt, vitamin D and A cyclodextrin” (LES LABORATORIES SERVIER, priority 2009, published 2011)

Assay: Stability of the vitamin D3+RAMEB complex at 40° C./75% RH in sealed amber glass pill containers
Format: physicochemical
Procedure: The stability of the vitamin D3+RAMEB complex of Example 1B at 40° C./75% RH was tested and compare to the stability of: 1) pure vitamin D3, 2) a concentrate of vitamin D3 in powder form (DSM).
The study is carried out in pill containers of sealed amber glass (stopper of type for antibiotics, chlorobutyl, grey, D13—natural aluminium crimp-on cap D20 mm, tear-off lid).

Structure (SMILES): C=C1CC[C@H](O)C/C1=C/C=C1\CCC[C@]2(C)[C@@H]([C@H](C)CCCC(C)C)CC[C@@H]12 [pure vitamin D3, cholecalciferol]
- % vitamin D3 (t0): 98.0%
- % vitamin D3 (t0 + 3 weeks, 40° C./75% RH): 20.3%
- % vitamin D3 (t0 + 6 weeks, 40° C./75% RH): 23.1%
